In patent publication US8686143B2, “Compounds useful as inhibitors of Janus kinases” (Vertex Pharmaceuticals Incorporated, priority 2007, dated 2014):

Target: T1, JAK3 (Homo sapiens, UniProt P52333)
T1 sequence (P52333 1-1124): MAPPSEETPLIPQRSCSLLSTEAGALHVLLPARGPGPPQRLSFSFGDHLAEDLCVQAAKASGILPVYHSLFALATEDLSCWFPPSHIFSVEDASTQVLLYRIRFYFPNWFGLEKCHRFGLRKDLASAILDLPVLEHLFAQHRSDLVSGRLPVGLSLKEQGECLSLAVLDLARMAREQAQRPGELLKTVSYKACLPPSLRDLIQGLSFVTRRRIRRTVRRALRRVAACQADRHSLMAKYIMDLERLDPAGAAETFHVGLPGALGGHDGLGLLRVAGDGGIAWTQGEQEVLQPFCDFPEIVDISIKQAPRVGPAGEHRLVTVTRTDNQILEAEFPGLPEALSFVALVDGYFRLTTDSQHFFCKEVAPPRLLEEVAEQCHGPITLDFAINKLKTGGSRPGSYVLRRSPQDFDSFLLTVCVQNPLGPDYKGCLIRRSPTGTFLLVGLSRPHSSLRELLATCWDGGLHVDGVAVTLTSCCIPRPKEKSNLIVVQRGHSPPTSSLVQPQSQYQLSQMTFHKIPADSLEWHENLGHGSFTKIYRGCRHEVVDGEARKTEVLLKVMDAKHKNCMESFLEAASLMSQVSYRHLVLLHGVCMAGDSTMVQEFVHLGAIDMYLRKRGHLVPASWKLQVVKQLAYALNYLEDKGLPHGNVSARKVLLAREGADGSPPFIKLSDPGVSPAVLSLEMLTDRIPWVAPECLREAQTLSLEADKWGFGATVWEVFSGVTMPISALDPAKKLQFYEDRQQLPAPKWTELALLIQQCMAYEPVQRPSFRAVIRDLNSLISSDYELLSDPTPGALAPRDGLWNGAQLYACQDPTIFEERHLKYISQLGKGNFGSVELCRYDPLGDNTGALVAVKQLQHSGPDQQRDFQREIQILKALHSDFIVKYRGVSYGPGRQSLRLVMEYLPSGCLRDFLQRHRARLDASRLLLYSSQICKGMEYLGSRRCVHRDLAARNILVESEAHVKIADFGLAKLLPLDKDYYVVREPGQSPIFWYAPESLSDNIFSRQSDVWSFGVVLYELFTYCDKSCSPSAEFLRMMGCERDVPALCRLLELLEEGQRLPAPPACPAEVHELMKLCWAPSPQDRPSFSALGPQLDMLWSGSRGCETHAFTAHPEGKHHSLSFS
Assay: JAK3 Inhibition Assay (33P incorporation into poly(Glu)4Tyr)
Type: biochemical
Conditions: 1 nM JAK3, 5 μM ATP, 1 μM poly(Glu)4Tyr, 25° C.
Method: Compounds were screened for their ability to inhibit JAK3 using the assay shown below. Reactions were carried out in a kinase buffer containing 100 mM HEPES (pH 7.4), 1 mM DTT, 10 mM MgCl2, 25 mM NaCl, and 0.01% BSA. Substrate concentrations in the assay were 5 μM ATP (200 uCi/μmole ATP) and 1 μM poly(Glu)4Tyr. Reactions were carried out at 25° C. and 1 nM JAK3.
To each well of a 96 well polycarbonate plate was added 1.5 μl of a candidate JAK3 inhibitor along with 50 μlof kinase buffer containing 2 μM poly(Glu)4Tyr and 10 μM ATP. This was then mixed and 50 μl of kinase buffer containing 2 nM JAK3 enzyme was added to start the reaction. After 20 minutes at room temperature (25° C.), the reaction was stopped with 50 μl of 20% trichloroacetic acid (TCA) that also contained 0.4 mM ATP. The entire contents of each well were then transferred to a 96 well glass fiber filter plate using a TomTek Cell Harvester. After washing, 60 μl of scintillation fluid was added and ^33P incorporation detected on a Perkin Elmer TopCount.

SMILES	Ki [µM]
CC(=O)Nc1nc2ccc(-c3nccc(N4CCC[C@@H]4C(=O)NCC(F)(F)F)n3)cc2s1 [Compound 63]	10 to 50
Nc1nc(Nc2ccc(F)cc2)nn1-c1cc(N2CCC[C@@H]2C(=O)NCC(F)(F)F)ncn1 [Compound 37]	≤ 1
CC(C)[C@H](Nc1ccnc(-c2cccnc2N)n1)C(=O)NCC(F)(F)F [Compound 28]	1 to 10
Nc1ncccc1-c1ncc(F)c(NCCC(=O)NCC(F)(F)F)n1 [Compound 30]	1 to 10
Nc1nc(Nc2ccc([C@H]3CC[C@H](N4CCOCC4)CC3)cc2)nn1-c1ncc(F)c(N2CCC[C@@H]2C(=O)NCC(F)(F)F)n1 [Compound 49]	1 to 10
Nc1ncccc1-c1ncc(F)c(N2CC(C(=O)NCC(F)(F)F)C2)n1 [Compound 32]	1 to 10
C[C@@H](Nc1nc(-c2cccnc2)ncc1F)C(=O)NCC(F)(F)F [Compound 20]	10 to 50
C[C@H](Nc1nc(-c2cccnc2)ncc1F)C(=O)NCC(F)(F)F [Compound 4]	1 to 10
CC[C@H](Nc1cc(-n2nc(Nc3ccc(F)cc3)nc2N)ncn1)C(=O)NCC(F)(F)F [Compound 34]	≤ 1
O=C(CNc1nc(-c2cccnc2F)ncc1F)NCC(F)(F)F [Compound 8]	10 to 50
O=C(NCC(F)(F)F)[C@H]1CCCN1c1ccnc(-c2ccc3ncccc3c2)n1 [Compound 60]	1 to 10
CC(C)(Nc1nc(-c2ccc3ncccc3c2)ncc1F)C(=O)NCC(F)(F)F [Compound 68]	≤ 1
Nc1nc(Nc2ccc(F)cc2)nn1-c1cc(NCC(=O)NCC(F)(F)F)ncn1 [Compound 36]	≤ 1
O=C(CNc1nc(-c2cccnc2)ncc1F)NCC(F)(F)F [Compound 11]	1 to 10
Nc1ncccc1-c1ncc(F)c(NCC(=O)NCC(F)(F)F)n1 [Compound 29]	≤ 1
Nc1nc(Nc2ccccc2)nn1-c1ncc(F)c(N2CCC[C@@H]2C(=O)NCC(F)(F)F)n1 [Compound 51]	1 to 10
Nc1ccc(Nc2nc(N)n(-c3ncc(F)c(N4CCCC4C(=O)NCC(F)(F)F)n3)n2)cc1 (stereo not shown) [Compound 56]	≤ 1
Nc1nc2ccc(-c3nccc(N4CCC[C@@H]4C(=O)NCC(F)(F)F)n3)cc2s1 [Compound 61]	1 to 10

The next lines start with the values.

Ki [µM]	SMILES
≤ 1	CC(C)(Nc1nc(-c2ccc3ncsc3c2)ncc1F)C(=O)NCC(F)(F)F [Compound 140]
≤ 1	CC(C)C(Nc1nc(-c2c[nH]c(C(=O)N3CC=CC3)c2)ncc1F)C(=O)NCC(F)(F)F (stereo not shown) [Compound 108]
1 to 10	O=C(NCC(F)(F)F)[C@H]1CCCN1c1nc(-c2ccc3ncsc3c2)ncc1F [Compound 141]
10 to 50	CC(C)(Nc1ccnc(-c2c[nH]c(C(=O)NCc3ccccc3)c2)n1)C(=O)NCC(F)(F)F [Compound 99]
1 to 10	CC(C)(Nc1nc(-c2c[nH]c(C(=O)NC3CC3)c2)ncc1F)C(=O)NCC(F)(F)F [Compound 94]
10 to 50	CC(C)(Nc1nc(-c2ccc(=O)[nH]c2)ncc1F)C(=O)NCC(F)(F)F [Compound 84]
10 to 50	O=C(NCC(F)(F)F)[C@H]1CCCN1c1nc(-c2ccc3ncccc3c2)ncc1F [Compound 89]
1 to 10	CC(C)[C@@H](Nc1nc(-c2c[nH]c(C(=O)NCc3ccccc3)c2)ncc1F)C(=O)NCC(F)(F)F [Compound 104]
≤ 1	CC(C)(Nc1ccnc(-c2ccc(O)cc2)n1)C(=O)NCC(F)(F)F [Compound 144]
1 to 10	CC(C)(Nc1nc(-c2c[nH]c3ccc(Cl)cc23)ncc1F)C(=O)NCC(F)(F)F [Compound 156]
1 to 10	CC(C)[C@@H](Nc1ccnc(-c2ccc(O)cc2)n1)C(=O)NCC(F)(F)F [Compound 167]
1 to 10	CC(C)[C@@H](Nc1ccnc(-c2c[nH]c(C(=O)NCc3ccccc3)c2)n1)C(=O)NCC(F)(F)F [Compound 110]
≤ 1	CN(C)C(=O)c1cc(-c2nccc(NC(C)(C)C(=O)NCC(F)(F)F)n2)c[nH]1 [Compound 132]
1 to 10	CC(C)(Nc1ccnc(-c2c[nH]c(=O)c(N)c2)n1)C(=O)NCC(F)(F)F [Compound 136]
1 to 10	CC(C)[C@@H](Nc1nc(-c2ccc3nccnc3c2)ncc1F)C(=O)NCC(F)(F)F [Compound 168]
10 to 50	CC(C)NC(=O)c1cc(-c2nccc(NC(C)(C)C(=O)NCC(F)(F)F)n2)c[nH]1 [Compound 100]
1 to 10	CC(C)(Nc1ccnc(-c2c[nH]c(C(=O)NC3CC3)c2)n1)C(=O)NCC(F)(F)F [Compound 98]
10 to 50	CN(C)C(=O)c1cc(-c2ncc(F)c(N3CCC[C@@H]3C(=O)NCC(F)(F)F)n2)c[nH]1 [Compound 129]
1 to 10	CC(C)[C@@H](Nc1ccnc(-c2ccc3ncccc3c2)n1)C(=O)NCC(F)(F)F [Compound 72]
1 to 10	CC(C)[C@@H](Nc1nc(-c2ccc3ncccc3c2)ncc1F)C(=O)NCC(F)(F)F [Compound 77]

Same assay, conditions: at concentrations of 5.0 μM

inhibition of JAK3 at concentrations of 5.0 μM	SMILES
did not inhibit	Nc1nc(NC2CC2)nn1-c1ncc(F)c(N2CCC[C@@H]2C(=O)NCC(F)(F)F)n1 [Compound 52]
did not inhibit	Nc1nc(Nc2ccccc2Cl)nn1-c1ncc(F)c(N2CCC[C@@H]2C(=O)NCC(F)(F)F)n1 [Compound 41]
did not inhibit	Nc1nc(NC2CCCCC2)nn1-c1ncc(F)c(N2CCC[C@@H]2C(=O)NCC(F)(F)F)n1 [Compound 47]
did not inhibit	Nc1nc(NCC2CCCO2)nn1-c1ncc(F)c(N2CCC[C@@H]2C(=O)NCC(F)(F)F)n1 (stereo partly shown) [Compound 55]

Same assay, conditions: at concentrations of 50 μM

SMILES	inhibition of JAK3 at concentrations of 50 μM
COc1ccc(-c2ncc(F)c(NC(C)(C)C(=O)NCC(F)(F)F)n2)cn1 [Compound 69]	did not inhibit
COc1ccc(-c2ncc(F)c(NCC(=O)NCC(F)(F)F)n2)cn1 [Compound 10]	did not inhibit
C[C@H](Nc1nc(-c2c[nH]c(C(=O)O)c2)ncc1F)C(=O)NCC(F)(F)F [Compound 7]	did not inhibit
COc1ccc(-c2ncc(F)c(N[C@H](C)C(=O)NCC(F)(F)F)n2)cn1 [Compound 18]	did not inhibit
C[C@H](Nc1nc(-c2cccnc2Cl)ncc1F)C(=O)NCC(F)(F)F [Compound 5]	did not inhibit

Other lines, results leading:

inhibition of JAK3 at concentrations of 50 μM	SMILES
did not inhibit	COc1ccc(-c2ncc(F)c(N[C@@H](C(=O)NCC(F)(F)F)C(C)C)n2)cn1 [Compound 81]
did not inhibit	COc1ccc(-c2nccc(N[C@@H](C(=O)NCC(F)(F)F)C(C)C)n2)cc1 [Compound 143]
did not inhibit	CC(C)[C@@H](Nc1ccnc(-c2c[nH]c(C(=O)O)c2)n1)C(=O)NCC(F)(F)F [Compound 134]
did not inhibit	CC(C)[C@@H](Nc1ccnc(-c2ccc3c(c2)OCCO3)n1)C(=O)NCC(F)(F)F [Compound 146]
did not inhibit	CC(C)NC(=O)c1cc(-c2ncc(F)c(N3CCC[C@@H]3C(=O)NCC(F)(F)F)n2)c[nH]1 [Compound 117]
did not inhibit	O=C(O)c1cc(-c2ncc(F)c(N3CCC[C@@H]3C(=O)NCC(F)(F)F)n2)c[nH]1 [Compound 127]
did not inhibit	CC(C)[C@@H](Nc1nc(-c2ccc(=O)[nH]c2)ncc1F)C(=O)NCC(F)(F)F [Compound 87]
did not inhibit	Nc1nc2ccc(-c3ncc(F)c(N4CCC[C@@H]4C(=O)NCC(F)(F)F)n3)cc2s1 [Compound 90]
